From DBAASP
Converted amounts (≈) assume the structure as drawn.

Experiments:
Assay in all cases: ≥ marks a high value that may be exact or a test limit, other limits are often not marked, values filed in µg/mL are converted to µM
[1] = test system: Escherichia coli ATCC 25922
[2] = test system: Bacillus subtilis ATCC 23857
[3] = test system: Escherichia coli ATCC 25726
[4] = test system: Staphylococcus aureus ATCC 25923
[5] = test system: Pseudomonas aeruginosa ATCC 27853
[6] = test system: Staphylococcus epidermidis ATCC 12228
[7] = test system: Acinetobacter baumannii ATCC 19606
[8] = test system: Enterococcus faecalis ATCC 29212
[9] = test system: Klebsiella pneumoniae ATCC 700603
Micrococcus luteus = test system: Micrococcus luteus
[10] = test system: Staphylococcus aureus ATCC 29213
Staphylococcus aureus = test system: Staphylococcus aureus
Bacillus subtilis 168 = test system: Bacillus subtilis 168
[11] = test system: Pseudomonas aeruginosa ATCC 9027
[12] = test system: Candida albicans ATCC 2002
[13] = test system: Pseudomonas aeruginosa CMCCB 10104

Row | SMILES | MIC [1] [µM] | MIC [2] [µM] | MIC [4] [µM] | also measured
1 | CC[C@H](C)[C@H](NC(=O)CN)C(=O)N[C@@H](C)C(=O)N[C@@H](C)C(=O)NCC(=O)N[C@H](C(=O)N[C@H](C(=O)N[C@H](C(=O)N[C@@H](CCCCN)C(=O)N[C@H](C(=O)N[C@@H](CCCCN)C(=O)N[C@@H](CCCCN)C(N)=O)[C@@H](C)CC)[C@@H](C)CC)[C@@H](C)CC)[C@@H](C)CC [GIAAGIIIKIKK] | 32 (≈ 39.2 µg/mL) | ≥ 32 | – | –
2 | CC[C@H](C)[C@H](NC(=O)CN)C(=O)N[C@H](C(=O)N[C@@H](C)C(=O)N[C@@H](C)C(=O)N[C@H](C(=O)N[C@H](C(=O)N[C@H](C(=O)N[C@@H](CCCCN)C(=O)N[C@H](C(=O)N[C@@H](CCCCN)C(=O)N[C@@H](CCCCN)C(N)=O)[C@@H](C)CC)[C@@H](C)CC)[C@@H](C)CC)[C@@H](C)CC)[C@@H](C)CC [GIIAAIIIKIKK] | > 128 | 16 (≈ 20.5 µg/mL) | – | –
3 | CC[C@H](C)[C@H](NC(=O)CNC(=O)[C@@H](NC(=O)[C@H](CCSC)NC(=O)[C@H](C)NC(=O)[C@H](CC(N)=O)NC(=O)[C@H](CCCCN)NC(=O)[C@H](Cc1ccccc1)NC(=O)[C@H](CO)NC(=O)[C@H](CC(=O)O)NC(=O)[C@H](CC(C)C)NC(=O)[C@H](CC(C)C)NC(=O)CN)[C@@H](C)CC)C(=O)N[C@@H](C)C(=O)N[C@@H](CCCCN)C(=O)N[C@@H](CO)C(=O)N[C@@H](C)C(=O)NCC(=O)N[C@@H](CCCCN)C(=O)N[C@H](C(=O)N[C@@H](C)C(=O)N[C@@H](CC(C)C)C(=O)N[C@@H](CC(N)=O)C(=O)N[C@@H](CCCCN)C(=O)N[C@H](C(=O)N[C@@H](C)C(=O)N[C@H]1CSSC[C@@H](C(=O)O)NC(=O)[C@H]([C@@H](C)O)NC(=O)[C@H](CCCCN)NC(=O)[C@H](CC(=O)O)NC(=O)[C@H]([C@@H](C)CC)NC(=O)[C@H](CCCCN)NC1=O)[C@@H](C)CC)[C@@H](C)O [GLLDSFKNAMIGIAKSAGKTALNKIACKIDKTC] | – | – | > 73 | MIC [3]: 18.2 µM (≈ 62.5 µg/mL)
4 | CC(C)C[C@H](NC(=O)[C@H](CC(C)C)NC(=O)[C@@H](NC(=O)[C@H](CCCCN)NC(=O)[C@H](Cc1ccccc1)NC(=O)[C@H](CCCN=C(N)N)NC(=O)[C@H](CCCCN)NC(=O)[C@H](CC(C)C)NC(=O)[C@H](CC(C)C)NC(=O)CN)[C@@H](C)O)C(N)=O [GLLKRFKTLL] | 64 (≈ 76 µg/mL) | ≥ 32 | 128 (≈ 152 µg/mL) | MIC [5]: 16 µM (≈ 19 µg/mL); MIC [6]: 16 µM (≈ 19 µg/mL); MIC [7]: 256 µM (≈ 304 µg/mL); MIC [8]: 256 µM (≈ 304 µg/mL); MIC [9]: 128 µM (≈ 152 µg/mL)
5 | CC[C@H](C)[C@H](NC(=O)CNC(=O)[C@H](CO)NC(=O)[C@@H](NC(=O)[C@H](CC(C)C)NC(=O)[C@H](CCC(=O)O)NC(=O)[C@H](CO)NC(=O)[C@H](C)NC(=O)[C@H](CCCCN)NC(=O)[C@H](CC(=O)O)NC(=O)[C@H](CCCCN)NC(=O)[C@@H](NC(=O)[C@H](CCCCN)NC(=O)[C@H](CCC(N)=O)NC(=O)[C@H](Cc1c[nH]c2ccccc12)NC(=O)[C@H](CC(C)C)NC(=O)CN)[C@@H](C)CC)C(C)C)C(=O)N[C@H](C(=O)N[C@@H](CCC(=O)O)C(=O)NCC(=O)N[C@H](C(=O)N[C@@H](CCCCN)C(N)=O)C(C)C)C(C)C [GLWQKIKDKASELVSGIVEGVK] | – | – | – | MIC (Micrococcus luteus): 0.168 µM (≈ 0.4 µg/mL)
6 | CC[C@H](C)[C@H](N)C(=O)N[C@@H](CC(=O)O)C(=O)N[C@@H](Cc1c[nH]c2ccccc12)C(=O)N[C@@H](CCCCN)C(=O)N[C@@H](CCCCN)C(=O)N[C@@H](CC(C)C)C(=O)N[C@@H](CC(C)C)C(=O)N1CCC[C@H]1C(=O)N[C@@H](C)C(=O)N[C@@H](C)C(=O)N[C@@H](CCCCN)C(=O)N[C@@H](CCC(N)=O)C(=O)N[C@H](C(=O)N[C@@H](CC(C)C)C(N)=O)[C@@H](C)CC [IDWKKLLPAAKQIL] | 128 (≈ 209 µg/mL) | ≥ 32 | – | MIC [6]: 256 µM (≈ 419 µg/mL); MIC [10]: 512 µM (≈ 838 µg/mL)
7 | CC[C@H](C)[C@H](N)C(=O)N[C@@H](CC(=O)O)C(=O)N[C@@H](Cc1c[nH]c2ccccc12)C(=O)N[C@@H](CCCCN)C(=O)N[C@@H](CCCCN)C(=O)N[C@@H](CC(C)C)C(=O)N1CCC[C@H]1C(=O)N[C@@H](CC(=O)O)C(=O)N[C@@H](C)C(=O)N[C@@H](C)C(=O)N[C@@H](CCCCN)C(=O)N[C@@H](CCC(N)=O)C(=O)N[C@H](C(=O)N[C@@H](CC(C)C)C(N)=O)[C@@H](C)CC [IDWKKLPDAAKQIL] | 1020 (≈ 1680 µg/mL) | ≥ 512 | – | MIC [6]: > 1020 µM; MIC [10]: > 1020 µM
8 | CSCC[C@H](NC(=O)[C@H](C)NC(=O)[C@H](CCCCN)NC(=O)[C@H](CCCN=C(N)N)NC(=O)[C@H](C)NC(=O)[C@H](CCCN=C(N)N)NC(=O)[C@H](CCC(=O)O)NC(=O)[C@@H](NC(=O)[C@H](CCCCN)NC(=O)CNC(=O)CNC(=O)CNC(=O)[C@H](Cc1ccccc1)NC(=O)[C@H](CCCCN)NC(=O)[C@@H](N)CCCCN)[C@@H](C)O)C(=O)N[C@@H](C)C(=O)N[C@H](C(=O)N[C@@H](CCC(=O)O)C(=O)O)C(C)C [KKFGGGKTERARKAMAVE] | 31.8 (≈ 62.5 µg/mL) | – | – | MIC (Micrococcus luteus): 31.8 µM (≈ 62.5 µg/mL); MIC (Staphylococcus aureus): 7.94 µM (≈ 15.6 µg/mL); MIC (Bacillus subtilis 168): 7.94 µM (≈ 15.6 µg/mL)
9 | CC[C@H](C)[C@H](NC(=O)[C@H](C)NC(=O)[C@H](CCCCN)NC(=O)[C@H](C)NC(=O)[C@@H](NC(=O)[C@H](C)NC(=O)[C@H](CC(C)C)NC(=O)[C@H](CC(C)C)NC(=O)[C@H](C)NC(=O)[C@H](CCCCN)NC(=O)[C@H](CC(C)C)NC(=O)[C@H](CC(N)=O)NC(=O)[C@@H](N)CC(C)C)C(C)C)C(=O)N[C@@H](CC(C)C)C(N)=O [LNLKALLAVAKAIL] | 8 (≈ 11.6 µg/mL) | 8 (≈ 11.6 µg/mL) | 4 (≈ 5.8 µg/mL) | MIC [9]: 16 µM (≈ 23.2 µg/mL); MIC [11]: 16 µM (≈ 23.2 µg/mL)
10 | CC[C@H](C)[C@H](NC(=O)[C@H](CC(C)C)NC(=O)[C@H](CC(C)C)NC(=O)[C@H](CC(=O)O)NC(=O)[C@H](CCCCN)NC(=O)[C@@H](NC(=O)[C@@H](NC(=O)CNC(=O)[C@H](CCSC)NC(=O)[C@@H](NC(=O)[C@@H](N)CO)C(C)C)[C@@H](C)O)C(C)C)C(=O)NCC(=O)N[C@@H](C)C(=O)NCC(=O)N[C@@H](CCCCN)C(=O)N[C@@H](CO)C(=O)N[C@@H](C)C(=O)N[C@@H](C)C(=O)N[C@@H](CCC(N)=O)C(=O)N[C@@H](CO)C(=O)N[C@H](C(=O)N[C@@H](CC(C)C)C(=O)N[C@@H](CCCCN)C(=O)N[C@@H](C)C(=O)N[C@@H](CC(C)C)C(=O)N[C@@H](CO)C(=O)N[C@H]1CSSC[C@@H](C(=O)O)NC(=O)[C@H](CC(=O)O)NC(=O)[C@H](CCCCN)NC(=O)[C@H](CO)NC(=O)[C@H](CC(C)C)NC(=O)[C@H](CCCCN)NC1=O)C(C)C [SVMGTVKDLLIGAGKSAAQSVLKALSCKLSKDC] | 3.16 (≈ 10.5 µg/mL) | – | 3.16 (≈ 10.5 µg/mL) | MIC [12]: 3.16 µM (≈ 10.5 µg/mL); MIC [13]: 6.32 µM (≈ 21 µg/mL)
11 | CC[C@H](C)[C@H](NC(=O)[C@H](CC(C)C)NC(=O)[C@H](CC(C)C)NC(=O)[C@H](CC(=O)O)NC(=O)[C@H](CCCCN)NC(=O)[C@@H](NC(=O)[C@@H](NC(=O)CNC(=O)[C@H](CCSC)NC(=O)[C@@H](NC(=O)[C@@H](N)CO)C(C)C)[C@@H](C)O)C(C)C)C(=O)NCC(=O)N[C@@H](C)C(=O)NCC(=O)N[C@@H](CCCCN)C(=O)N[C@@H](CO)C(=O)N[C@@H](C)C(=O)N[C@@H](C)C(=O)N[C@@H](CCC(N)=O)C(=O)N[C@@H](CO)C(=O)N[C@H](C(=O)N[C@@H](CC(C)C)C(=O)N[C@@H](CCCCN)C(=O)N[C@@H](CO)C(=O)N[C@@H](CC(C)C)C(=O)N[C@@H](CO)C(=O)N[C@H]1CSSC[C@@H](C(=O)O)NC(=O)[C@H](CC(=O)O)NC(=O)[C@H](CC(N)=O)NC(=O)[C@H](CO)NC(=O)[C@H]([C@@H](C)CC)NC(=O)[C@H](CCCCN)NC1=O)C(C)C [SVMGTVKDLLIGAGKSAAQSVLKSLSCKISNDC] | 1.41 (≈ 4.7 µg/mL) | – | 2.83 (≈ 9.39 µg/mL) | MIC [12]: 1.41 µM (≈ 4.7 µg/mL); MIC [13]: 1.41 µM (≈ 4.7 µg/mL)
